Test results from patent publication US11000033B2, “Ketone or oxime compound, and herbicide” (NISSAN CHEMICAL CORPORATION, priority 2014, dated 2021).

What was measured:
Assay type in all cases: in vivo
Monochoria vaginalis = experiment: Test Example 2: herbicidal activity, application during weed generation in submerged conditions (symbol C); details: Table 23; application herbicide amount 320 g/ha; grade 0-5 by criteria of Test Example 1
Summary of the method: (§1)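 Visual herbicidal ratings, taken three weeks after dosing, reflect post-emergence water-surface application to seedlings at one to two leaves. Conditions: co-sown weeds in alluvial soil flooded to 4 cm, greenhouse held at 25° C. to 30° C.; compound given as water-diluted emulsion at a fixed herbicide amount.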

Scirpus juncoides = experiment: Test Example 2: herbicidal activity, application during weed generation in submerged conditions (symbol B); details: Table 23; application herbicide amount 320 g/ha; grade 0-5 by criteria of Test Example 1
Summary of the method: as §1

[1] = test system: Echinochloa oryzacola Vasing.; experiment: Test Example 1: herbicidal activity, application before weed generation in submerged conditions (symbol A); details: application herbicide amount 320 g/ha
Summary of the method: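 Weeds are sown into submerged alluvial soil alongside transplanted 2.5-leaf rice, and the compound, as an emulsion diluted to a set rate, is applied onto the water before emergence. Rating on the 0–5 herbicidal-ratio scale follows 3 weeks of greenhouse growth at 25–30 °C.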

Leptochloa chinensis = experiment: Test Example 3: herbicidal effect by foliage application, Wagner pot (symbol D); details: application herbicide amount 320 g/ha
Summary of the method: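 Herbicidal activity was rated three weeks after a foliar spray of diluted emulsion concentrate, applied at a predetermined dose to plants grown for 14 days from seed in waterlogged alluvial soil within a 25–30 °C greenhouse.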

Alopecurus myosuroides = experiment: Test Example 5: herbicidal effect by foliage application, plastic box (symbol J); details: 320 g/ha, 3 weeks after application
Summary of the method: (§2)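 Effect is rated 3 weeks after a foliar spray of water-diluted emulsion concentrate at a predetermined herbicide amount. Plants had grown 14 days in a 25° C. to 30° C. greenhouse from seed in sterilized diluvial soil.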

rapeseed = experiment: Test Example 5: effect on crop by foliage application, plastic box (symbol g); details: 320 g/ha, 3 weeks after application
Summary of the method: (§3)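 Soil: sterilized diluvial. Container: plastic box, 21 × 13 cm, 7 cm deep. Sowing: spot-like, ~1.5 cm cover. Growth: greenhouse, 25° C. to 30° C.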

beet [2] = experiment: Test Example 5: effect on crop by foliage application, plastic box (symbol f); details: 320 g/ha, 3 weeks after application
Summary of the method: as §3

Veronica persica = experiment: Test Example 4: herbicidal effect by soil treatment (symbol R); details: application herbicide amount 320 g/ha
Summary of the method: (§4)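 Seeds were sown in sterilized diluvial soil, covered with about 1.5 cm of soil, and the soil surface was sprayed with a water-diluted emulsion of the compound at a predetermined rate. Plants grew in a greenhouse at 25° C. to 30° C.; effects were scored visually 3 weeks after application.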

Setaria viridis = experiment: Test Example 4: herbicidal effect by soil treatment (symbol G); details: application herbicide amount 320 g/ha
Summary of the method: as §4

Digitaria ciliaris = experiment: Test Example 5: herbicidal effect by foliage application, plastic box (symbol F); details: 320 g/ha, 3 weeks after application
Summary of the method: as §2

beet [3] = experiment: Test Example 4: effect on crop by soil treatment (symbol f); details: application herbicide amount 320 g/ha
Summary of the method: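 Greenhouse culture at 25° C. to 30° C. followed sowing of seed in spots on sterilized diluvial soil with a soil cover close to 1.5 cm thick.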

Avena fatua = experiment: Test Example 5: herbicidal effect by foliage application, plastic box (symbol I); details: 320 g/ha, 3 weeks after application
Summary of the method: as §2

| Structure (SMILES) | Herbicidal effect grade, C: Monochoria vaginalis (Monochoria vaginalis) | Herbicidal effect grade, B: Scirpus juncoides (Scirpus juncoides) | Herbicidal effect grade, A: Echinochloa oryzacola Vasing. [1] | herbicidal effect on D (Leptochloa chinensis), grade 0-5 (Leptochloa chinensis) | J: Alopecurus myosuroides, herbicidal effect grade (Alopecurus myosuroides) | g: rapeseed, effect on crop grade (rapeseed) | f: beet, effect on crop grade (beet [2]) | R (Veronica persica) herbicidal effect grade (Veronica persica) | G (Setaria viridis) herbicidal effect grade (Setaria viridis) | F: Digitaria ciliaris, herbicidal effect grade (Digitaria ciliaris) | f (beet) effect on crop grade (beet [3]) | I: Avena fatua, herbicidal effect grade (Avena fatua) |
| --- | --- | --- | --- | --- | --- | --- | --- | --- | --- | --- | --- | --- |
| CC(CC1CC(O)=C(c2c(C)cc(C)cc2C)C1=O)=NO (stereo not drawn) [1-058] | 0 (Herbicidal ratio of 5% or lower (almost no effect)) | 0 (Herbicidal ratio of 5% or lower (almost no effect)) | 5 (Herbicidal ratio of 90% or more (almost completely withered)) | 5 (Herbicidal ratio of 90% or more (almost completely withered)) | 5 (Herbicidal ratio of 90% or more (almost completely withered)) | 4 (Herbicidal ratio of 70% or higher and lower than 90%) | 0 (Herbicidal ratio of 5% or lower (almost no effect)) | 0 (Herbicidal ratio of 5% or lower (almost no effect)) | 5 (Herbicidal ratio of 90% or more (almost completely withered)) | 5 (Herbicidal ratio of 90% or more (almost completely withered)) | 0 (Herbicidal ratio of 5% or lower (almost no effect)) | 5 (Herbicidal ratio of 90% or more (almost completely withered)) |
| CON=C(C)CC1CC(OC(=O)C(C)Oc2ccccc2)=C(c2c(C)cc(C)cc2C)C1=O (stereo not drawn) [1-060] | 0 (Herbicidal ratio of 5% or lower (almost no effect)) | 4 (Herbicidal ratio of 70% or higher and lower than 90%) | 5 (Herbicidal ratio of 90% or more (almost completely withered)) | 5 (Herbicidal ratio of 90% or more (almost completely withered)) | 5 (Herbicidal ratio of 90% or more (almost completely withered)) | 4 (Herbicidal ratio of 70% or higher and lower than 90%) | 0 (Herbicidal ratio of 5% or lower (almost no effect)) | 0 (Herbicidal ratio of 5% or lower (almost no effect)) | 5 (Herbicidal ratio of 90% or more (almost completely withered)) | 5 (Herbicidal ratio of 90% or more (almost completely withered)) | 0 (Herbicidal ratio of 5% or lower (almost no effect)) | 5 (Herbicidal ratio of 90% or more (almost completely withered)) |
| CCCC(CC1CC(O)=C(c2c(C)cc(C)cc2C)C1=O)=NOC (stereo not drawn) [1-062] | 0 (Herbicidal ratio of 5% or lower (almost no effect)) | 0 (Herbicidal ratio of 5% or lower (almost no effect)) | 5 (Herbicidal ratio of 90% or more (almost completely withered)) | 3 (Herbicidal ratio of 40% or higher and lower than 70%) | 5 (Herbicidal ratio of 90% or more (almost completely withered)) | 3 (Herbicidal ratio of 40% or higher and lower than 70%) | 0 (Herbicidal ratio of 5% or lower (almost no effect)) | 0 (Herbicidal ratio of 5% or lower (almost no effect)) | 5 (Herbicidal ratio of 90% or more (almost completely withered)) | 1 (Herbicidal ratio of 5% or higher and lower than 20%) | 0 (Herbicidal ratio of 5% or lower (almost no effect)) | 4 (Herbicidal ratio of 70% or higher and lower than 90%) |
| CON=C(C)CC1CC(OC(=O)C(C)(C)Oc2ccccc2Cl)=C(c2c(C)cc(C)cc2C)C1=O (stereo not drawn) [1-064] | 1 (Herbicidal ratio of 5% or higher and lower than 20%) | 4 (Herbicidal ratio of 70% or higher and lower than 90%) | 5 (Herbicidal ratio of 90% or more (almost completely withered)) | 5 (Herbicidal ratio of 90% or more (almost completely withered)) | 5 (Herbicidal ratio of 90% or more (almost completely withered)) | 4 (Herbicidal ratio of 70% or higher and lower than 90%) | 1 (Herbicidal ratio of 5% or higher and lower than 20%) | 0 (Herbicidal ratio of 5% or lower (almost no effect)) | 5 (Herbicidal ratio of 90% or more (almost completely withered)) | 5 (Herbicidal ratio of 90% or more (almost completely withered)) | 0 (Herbicidal ratio of 5% or lower (almost no effect)) | 5 (Herbicidal ratio of 90% or more (almost completely withered)) |
| CON=C(C)CC1CC(OC(=O)C(C)(C)Oc2cccc(Cl)c2)=C(c2c(C)cc(C)cc2C)C1=O (stereo not drawn) [1-065] | 0 (Herbicidal ratio of 5% or lower (almost no effect)) | 5 (Herbicidal ratio of 90% or more (almost completely withered)) | 5 (Herbicidal ratio of 90% or more (almost completely withered)) | 5 (Herbicidal ratio of 90% or more (almost completely withered)) | 5 (Herbicidal ratio of 90% or more (almost completely withered)) | 4 (Herbicidal ratio of 70% or higher and lower than 90%) | 0 (Herbicidal ratio of 5% or lower (almost no effect)) | 0 (Herbicidal ratio of 5% or lower (almost no effect)) | 5 (Herbicidal ratio of 90% or more (almost completely withered)) | 5 (Herbicidal ratio of 90% or more (almost completely withered)) | 0 (Herbicidal ratio of 5% or lower (almost no effect)) | 5 (Herbicidal ratio of 90% or more (almost completely withered)) |
| CCC(C)C(CC1CC(O)=C(c2c(C)cc(C)cc2C)C1=O)=NOC (stereo not drawn) [1-066] | 0 (Herbicidal ratio of 5% or lower (almost no effect)) | 0 (Herbicidal ratio of 5% or lower (almost no effect)) | 4 (Herbicidal ratio of 70% or higher and lower than 90%) | 2 (Herbicidal ratio of 20% or higher and lower than 40%) | 5 (Herbicidal ratio of 90% or more (almost completely withered)) | 3 (Herbicidal ratio of 40% or higher and lower than 70%) | 0 (Herbicidal ratio of 5% or lower (almost no effect)) | 0 (Herbicidal ratio of 5% or lower (almost no effect)) | 4 (Herbicidal ratio of 70% or higher and lower than 90%) | 4 (Herbicidal ratio of 70% or higher and lower than 90%) | 0 (Herbicidal ratio of 5% or lower (almost no effect)) | 4 (Herbicidal ratio of 70% or higher and lower than 90%) |
